Laboratory results published in patent US20260274892A1, “MACROCYCLIC BROAD SPECTRUM ANTIBIOTICS” (RQx Pharmaceuticals, Inc., priority 2017, published 2026).

test system: Escherichia coli ATCC 25922; assay: Minimum inhibitory concentration (MIC), CLSI broth micro-dilution, E. coli; format: cell-based; conditions: Escherichia coli, ATCC25922, 22 h, Table 6, cation adjusted Mueller Hinton Broth + 0.002% Tween-80, 35° C.
Procedure, shortened: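 Antibacterial potency is measured as MIC by the CLSI broth dilution method. Bacteria at OD600 0.0005 in Tween-80-supplemented cation-adjusted Mueller Hinton broth face ten twofold compound dilutions for 22 h at 35° C.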

Row | SMILES | MIC
1 | Cc1nc(-c2ccc(OCCC(C)(C)C)cc2)nc(N)c1C(=O)N[C@@H](CCN)C(=O)N(C)[C@@H]1C(=O)N[C@@H](C)C(=O)N[C@H](C(=O)NCC#N)Cc2ccc(OCCCN)c(c2)-c2cc1ccc2OCCCN (racemic) [Compound 436, rac-(8S,11S,14S)-3,18-bis(3-aminopropoxy)-N-(cyanomethyl)-11-methyl-14-[methyl-[rac-(2S)-4-amino-2-[[4-amino-2-[4-(3,3-dimethylbutoxy)phenyl]-6-methyl-pyrimidine-5-carbonyl]amino]butanoyl]amino]-10,13-dioxo-9,12-diazatricyclo[13.3.1.12,6]icosa-1(18),2(20),3,5,15(19),16-hexaene-8-carboxamide] | 0.063 µM

same assay, conditions: Escherichia coli, ATCC25922, Table 6, cation adjusted Mueller Hinton Broth + 0.002% Tween-80, 35° C., 22 hours

Row | SMILES | MIC
2 | Cc1nc(-c2ccc(C(C)(C)C)cc2)ncc1C(=O)N[C@@H](CCN)C(=O)N(C)[C@@H]1C(=O)N[C@@H](C)C(=O)N[C@H](C(=O)NCC#N)Cc2ccc(OCCCN)c(c2)-c2cc1ccc2OCCCN (racemic) [Compound 433, rac-(8S,11S,14S)-3,18-bis(3-aminopropoxy)-N-(cyanomethyl)-11-methyl-14-[methyl-[rac-(2S)-4-amino-2-[[2-(4-tert-butylphenyl)-4-methyl-pyrimidine-5-carbonyl]amino]butanoyl]amino]-10,13-dioxo-9,12-diazatricyclo[13.3.1.12,6]icosa-1(18),2(20),3,5,15(19),16-hexaene-8-carboxamide] | 0.096 µM
3 | CNC(=N)NCCOc1ccc2cc1-c1cc(ccc1OCCNC(=N)NC)[C@H](N(C)C(=O)[C@H](CCN)NC(=O)c1c(C)nc(-c3ccc(C(C)(C)C)cc3)nc1C)C(=O)N[C@@H](C)C(=O)N[C@H](C(=O)NCC#N)C2 (racemic) [Compound 441, rac-(8S,11S,14S)-N-(cyanomethyl)-11-methyl-3,18-bis[2-[(N-methylcarbamimidoyl)amino]ethoxy]-14-[methyl-[rac-(2S)-4-amino-2-[[2-(4-tert-butylphenyl)-4,6-dimethyl-pyrimidine-5-carbonyl]amino]butanoyl]amino]-10,13-dioxo-9,12-diazatricyclo[13.3.1.12,6]icosa-1(18),2(20),3,5,15(19),16-hexaene-8-carboxamide] | 0.38 µM
4 | Cc1nc(-c2ccc(C(C)(C)C)cc2)ncc1C(=O)N[C@@H](CCN)C(=O)N(C)[C@@H]1C(=O)N[C@@H](C)C(=O)N[C@H](C(=O)NCC#N)Cc2ccc(OCCN(C)C)c(c2)-c2cc1ccc2OCCN(C)C (racemic) [Compound 442, rac-(8S,11S,14S)-N-(cyanomethyl)-3,18-bis[2-(dimethylamino)ethoxy]-11-methyl-14-[methyl-[rac-(2S)-4-amino-2-[[2-(4-tert-butylphenyl)-4-methyl-pyrimidine-5-carbonyl]amino]butanoyl]amino]-10,13-dioxo-9,12-diazatricyclo[13.3.1.12,6]icosa-1(18),2(20),3,5,15(19),16-hexaene-8-carboxamide] | 0.91 µM
5 | CCCCCCCCc1ccc(C(=O)N[C@@H](CCNS(N)(=O)=O)C(=O)N(C)[C@@H]2C(=O)N[C@@H](C)C(=O)N[C@H](C(=O)NCC#N)Cc3ccc(OCCN)c(c3)-c3cc2ccc3OCCN)c(C)c1 (racemic) [Compound 449, rac-(8S,11S,14S)-3,18-bis(2-aminoethoxy)-N-(cyanomethyl)-11-methyl-14-[methyl-[rac-(2S)-2-[(2-methyl-4-octyl-benzoyl)amino]-4-(sulfamoylamino)butanoyl]amino]-10,13-dioxo-9,12-diazatricyclo[13.3.1.12,6]icosa-1(18),2(20),3,5,15(19),16-hexaene-8-carboxamide] | 0.5 µM
6 | CCCCCCCCc1ccc(C(=O)N[C@@H](CCCNC(N)=O)C(=O)N(C)[C@@H]2C(=O)N[C@@H](C)C(=O)N[C@H](C(=O)NCC#N)Cc3ccc(OCCN)c(c3)-c3cc2ccc3OCCN)c(C)c1 (racemic) [Compound 450, rac-(8S,11S,14S)-3,18-bis(2-aminoethoxy)-N-(cyanomethyl)-11-methyl-14-[methyl-[rac-(2S)-2-[(2-methyl-4-octyl-benzoyl)amino]-5-ureido-pentanoyl]amino]-10,13-dioxo-9,12-diazatricyclo[13.3.1.12,6]icosa-1(18),2(20),3,5,15(19),16-hexaene-8-carboxamide] | 2.1 µM
